# Experimental data reported in patent publication US12377104B1, “Methods for treating a fatty liver disease” (Madrigal Pharmaceuticals, Inc., priority 2024, dated 2025).
# What was measured:
# [1] = test system: adults with biopsy-confirmed NASH and fibrosis stage F1B, F2, or F3; assay: MAESTRO-NASH: sensitivity analyses of primary endpoints (consensus, multiple imputation, GEE, tipping point, paired biopsies); assay type: in vivo, human; conditions: for Fibrosis improvement at Week 52, % / Fibrosis improvement at Week 52, no. / NASH resolution at Week 52, % / NASH resolution at Week 52, no.: GEE analysis; for Difference in percentage of responders, CMH, resmetirom group - placebo, NASH resolution / Difference in percentage of responders, CMH, resmetirom group - placebo, fibrosis improvement / OR of resmetirom group to placebo, NASH resolution / OR of resmetirom group to placebo, fibrosis improvement: GEE model
# Description: Consensus reads of digitized images of glass slides by the two central pathologists were conducted in cases where the two pathologists scores disagreed as to whether there was a response for either NASH resolution (ballooning 0,1; 2-point NAS reduction and no worsening of fibrosis) OR ≥1 stage fibrosis reduction with no worsening of NAS (primary endpoints) OR a 2-stage reduction in fibrosis with no worsening of NAS. The study pathologists remained blinded to all clinical data, patient ID, and slide/image identity or time of biopsy. Study personnel remain blinded to patient level data and detailed group analyses. In total 387 total assessments took place requiring four Zoom meetings between the pathologists.
# Tipping Point Analyses: This analysis imputed missing placebo responses for NASH resolution (in increments from 0% to 100% placebo imputation) and fibrosis response (in increments from 0% up to 35% placebo imputation) at Week 52 as successful responses in order to determine how many missing responses (which were counted in the primary analysis labels as non-responders) could be imputed before losing statistical significance.
# Multiple Imputation Analysis: Multiple imputation analyses were conducted where data for patients with missing response at Week 52 were imputed under the missing at random assumption. Data for patients with missing response data at Week 52 were imputed under the missing at random assumption by running a simulation (100 times) which produces a correlated pair of binary 0/1 data for each patient that represents the patient's response status for each pathologist. The statistics were then calculated for each imputation using the same approach as for the primary endpoint. The normalized results from each dataset were combined using Rubin's rule. (Table 17).
# General Estimating Equation (GEE) Model Analysis: A generalized estimation equation (GEE) analysis was performed as a sensitivity analysis. This approach treated the biopsy scores from the two pathologists as repeated measures (i.e. correlated binary outcomes) within a patient. Baseline diabetes status, fibrosis stage and interaction term between pathologist and treatment were also included in the model.
# Summary of Observed Cases Using In-window Week 52 Paired Liver Biopsies: Supportive analyses were performed on patients with in-window paired Week 52 biopsies. Missing Week 52 biopsies were not imputed.
# [2] = human, in vivo
# Description: Following once daily doses, steady state was typically reached within 3 to 6 days of dosing.
# [3] = test system: adults with biopsy-confirmed NASH; assay: 36-week Phase 2 serial MRI-PDFF and liver biopsy study: liver volume and PDFF; assay type: in vivo, human
# Description: Hepatomegaly may cause symptoms (e.g., pain) in NASH patients, and is thought to be driven primarily by high liver fat content. […] This study was to assess the relationship between liver triglycerides as measured by MRI-PDFF and liver volume (LV) in placebo and resmetirom-treated patients.
# LV was assessed using a validated artificial intelligence model for segmenting the liver on standard MR images.
# LV at baseline was elevated in non-cirrhotic and cirrhotic NASH patients relative to literature values for healthy controls and was greater than predicted even after accounting for sex and body weight. PDFF correlated with LV at baseline in non-cirrhotic (r2=0.19, p<0.001) and more weakly in cirrhotic NASH (r2=0.079, p=0.01).
# [4] = 80 mg (N = 258), in window including a baseline and Week 52 biopsy
# [5] = 80 mg (n = 316), (1, 1) = responder per pathologist A and B
# [6] = 80 mg (n = 316), Week 52, tipping point analysis, active patients with missing response = non-responders
# [7] = 80 mg, (0, 0) = non-responder per both pathologists
# [8] = 80 mg, (0, 1) = responder per pathologist B only
# [9] = 80 mg, (1, 0) = responder per pathologist A only
# [10] = 100 mg (N = 248), in window including a baseline and Week 52 biopsy
# [11] = 100 mg (n = 321), (1, 1) = responder per pathologist A and B
# [12] = 100 mg (n = 321), Week 52, tipping point analysis, active patients with missing response = non-responders
# [13] = 100 mg, (0, 0) = non-responder per both pathologists
# [14] = 100 mg, (0, 1) = responder per pathologist B only
# [15] = 100 mg, (1, 0) = responder per pathologist A only
# [16] = in window including a baseline and Week 52 biopsy
# [17] = in-window including a baseline and Week 52 biopsy
# [18] = tipping point, Placebo-0% imputed responders (Primary Analysis)
# [19] = tipping point, Placebo-10% imputed responders
# [20] = tipping point, Placebo-20% imputed responders
# [21] = tipping point, Placebo-25% imputed responders
# [22] = tipping point, Placebo-30% imputed responders
# [23] = tipping point, Placebo-35% imputed responders
# [24] = tipping point, Placebo-60% imputed responders
# [25] = tipping point, Placebo-67% imputed responders
# [26] = tipping point, Placebo-90% imputed responders
# [27] = tipping point, Placebo-100% imputed responders
smiles,measurement,setting,value
"CC(C)c1cc(Oc2c(Cl)cc(-n3nc(C#N)c(=O)[nH]c3=O)cc2Cl)n[nH]c1=O [Resmetirom, 2-(3,5-dichloro-4-((5-isopropyl-6-oxo-1,6-dihydropyridazin-3-yl)oxy)phenyl)-3,5-dioxo-2,3,4,5-tetrahydro-1,2,4-triazine-6-carbonitrile]","% Response, Fibrosis improvement",[1]; [4],29.7%
same,"% Response, NASH resolution",[1]; [4],31.8%
same,"% Response, NASH resolution OR fibrosis improvement","[1]; 80 mg (N = 258), in-window including a baseline and Week 52 biopsy",42.2%
same,"Fibrosis improvement at Week 52, %",[1]; [5],(16.5) %
same,"Fibrosis improvement at Week 52, no.",[1]; [5],52
same,"NASH resolution at Week 52, %",[1]; [5],(19.6) %
same,"NASH resolution at Week 52, no.",[1]; [5],62
same,"% Response, Fibrosis improvement",[1]; [6],24.2%
same,"% Response, NASH resolution",[1]; [6],25.9%
same,"Fibrosis improvement, Consensus (sensitivity), % Difference from PBO","[1]; 80 mg, Week 52",12.2%
same,"Fibrosis improvement, Consensus (sensitivity), % Response","[1]; 80 mg, Week 52",24.4%
same,"Fibrosis improvement, Multiple imputation (sensitivity), % Difference from PBO","[1]; 80 mg, Week 52",11.4%
same,"Fibrosis improvement, Multiple imputation (sensitivity), % Response","[1]; 80 mg, Week 52",29.2%
same,"NASH resolution, Consensus (sensitivity), % Difference from PBO","[1]; 80 mg, Week 52",16.8%
same,"NASH resolution, Consensus (sensitivity), % Response","[1]; 80 mg, Week 52",24.4%
same,"NASH resolution, Multiple imputation (sensitivity), % Difference from PBO","[1]; 80 mg, Week 52",17.7%
same,"NASH resolution, Multiple imputation (sensitivity), % Response","[1]; 80 mg, Week 52",31.0%
same,"Fibrosis improvement at Week 52, %",[1]; [7],(68.0) %
same,"Fibrosis improvement at Week 52, no.",[1]; [7],215
same,"NASH resolution at Week 52, %",[1]; [7],(67.7) %
same,"NASH resolution at Week 52, no.",[1]; [7],214
same,"Fibrosis improvement at Week 52, %",[1]; [8],(8.9) %
same,"Fibrosis improvement at Week 52, no.",[1]; [8],28
same,"NASH resolution at Week 52, %",[1]; [8],(5.1) %
same,"NASH resolution at Week 52, no.",[1]; [8],16
same,"Fibrosis improvement at Week 52, %",[1]; [9],(6.6) %
same,"Fibrosis improvement at Week 52, no.",[1]; [9],21
same,"NASH resolution at Week 52, %",[1]; [9],(7.6) %
same,"NASH resolution at Week 52, no.",[1]; [9],24
same,"Difference in percentage of responders, CMH, resmetirom group - placebo, NASH resolution","[1]; 80 mg, Week 52",17.5
same,"Difference in percentage of responders, CMH, resmetirom group - placebo, fibrosis improvement","[1]; 80 mg, Week 52",9.7
same,"OR of resmetirom group to placebo, NASH resolution","[1]; 80 mg, Week 52",3.5
same,"OR of resmetirom group to placebo, fibrosis improvement","[1]; 80 mg, Week 52",2.0
same,"% Response, Fibrosis improvement",[1]; [10],33.5%
same,"% Response, NASH resolution",[1]; [10],38.7%
same,"% Response, NASH resolution OR fibrosis improvement","[1]; 100 mg (N = 248), in-window including a baseline and Week 52 biopsy",50.4%
same,"Fibrosis improvement at Week 52, %",[1]; [11],(15.9) %
same,"Fibrosis improvement at Week 52, no.",[1]; [11],51
same,"NASH resolution at Week 52, %",[1]; [11],(19.3) %
same,"NASH resolution at Week 52, no.",[1]; [11],62
same,"% Response, Fibrosis improvement",[1]; [12],25.9%
same,"% Response, NASH resolution",[1]; [12],29.9%
same,"Fibrosis improvement, Consensus (sensitivity), % Difference from PBO","[1]; 100 mg, Week 52",13.4%
same,"Fibrosis improvement, Consensus (sensitivity), % Response","[1]; 100 mg, Week 52",25.5%
same,"Fibrosis improvement, Multiple imputation (sensitivity), % Difference from PBO","[1]; 100 mg, Week 52",14.1%
same,"Fibrosis improvement, Multiple imputation (sensitivity), % Response","[1]; 100 mg, Week 52",31.9%
same,"NASH resolution, Consensus (sensitivity), % Difference from PBO","[1]; 100 mg, Week 52",20.7%
same,"NASH resolution, Consensus (sensitivity), % Response","[1]; 100 mg, Week 52",27.7%
same,"NASH resolution, Multiple imputation (sensitivity), % Difference from PBO","[1]; 100 mg, Week 52",23.2%
same,"NASH resolution, Multiple imputation (sensitivity), % Response","[1]; 100 mg, Week 52",36.0%
same,"Fibrosis improvement at Week 52, %",[1]; [13],(64.2) %
same,"Fibrosis improvement at Week 52, no.",[1]; [13],206
same,"NASH resolution at Week 52, %",[1]; [13],(59.5) %
same,"NASH resolution at Week 52, no.",[1]; [13],191
same,"Fibrosis improvement at Week 52, %",[1]; [14],(9.3) %
same,"Fibrosis improvement at Week 52, no.",[1]; [14],30
same,"NASH resolution at Week 52, %",[1]; [14],(4.0) %
same,"NASH resolution at Week 52, no.",[1]; [14],13
same,"Fibrosis improvement at Week 52, %",[1]; [15],(10.6) %
same,"Fibrosis improvement at Week 52, no.",[1]; [15],34
same,"NASH resolution at Week 52, %",[1]; [15],(17.1) %
same,"NASH resolution at Week 52, no.",[1]; [15],55
same,"Difference in percentage of responders, CMH, resmetirom group - placebo, NASH resolution","[1]; 100 mg, Week 52",21.3
same,"Difference in percentage of responders, CMH, resmetirom group - placebo, fibrosis improvement","[1]; 100 mg, Week 52",11.0
same,"OR of resmetirom group to placebo, NASH resolution","[1]; 100 mg, Week 52",4.2
same,"OR of resmetirom group to placebo, fibrosis improvement","[1]; 100 mg, Week 52",2.1
same,"% Difference Resmetirom 80 mg from PBO, Fibrosis improvement",[1]; [16],13.6%
same,"% Difference Resmetirom 80 mg from PBO, NASH resolution",[1]; [16],20.9%
same,"% Difference Resmetirom 100 mg from PBO, Fibrosis improvement",[1]; [16],17.2%
same,"% Difference Resmetirom 100 mg from PBO, NASH resolution",[1]; [16],28.6%
same,"% Difference Resmetirom 80 mg from PBO, NASH resolution OR fibrosis improvement",[1]; [17],23.1%
same,"% Difference Resmetirom 100 mg from PBO, NASH resolution OR fibrosis improvement",[1]; [17],31.2%
same,"% Difference Resmetirom 80 mg from PBO, Fibrosis improvement",[1]; [18],10.2%
same,"% Difference Resmetirom 80 mg from PBO, NASH resolution",[1]; [18],16.4%
same,"% Difference Resmetirom 100 mg from PBO, Fibrosis improvement",[1]; [18],11.8%
same,"% Difference Resmetirom 100 mg from PBO, NASH resolution",[1]; [18],20.7%
same,"% Difference Resmetirom 80 mg from PBO, Fibrosis improvement",[1]; [19],8.8%
same,"% Difference Resmetirom 100 mg from PBO, Fibrosis improvement",[1]; [19],10.4%
same,"% Difference Resmetirom 80 mg from PBO, Fibrosis improvement",[1]; [20],7.5%
same,"% Difference Resmetirom 100 mg from PBO, Fibrosis improvement",[1]; [20],9.1%
same,"% Difference Resmetirom 80 mg from PBO, Fibrosis improvement",[1]; [21],6.9%
same,"% Difference Resmetirom 100 mg from PBO, Fibrosis improvement",[1]; [21],8.5%
same,"% Difference Resmetirom 80 mg from PBO, Fibrosis improvement",[1]; [22],6.2%
same,"% Difference Resmetirom 80 mg from PBO, NASH resolution",[1]; [22],12.4%
same,"% Difference Resmetirom 100 mg from PBO, Fibrosis improvement",[1]; [22],7.8%
same,"% Difference Resmetirom 100 mg from PBO, NASH resolution",[1]; [22],16.7%
same,"% Difference Resmetirom 80 mg from PBO, Fibrosis improvement",[1]; [23],5.5%
same,"% Difference Resmetirom 100 mg from PBO, Fibrosis improvement",[1]; [23],7.1%
same,"% Difference Resmetirom 80 mg from PBO, NASH resolution",[1]; [24],8.3%
same,"% Difference Resmetirom 100 mg from PBO, NASH resolution",[1]; [24],12.7%
same,"% Difference Resmetirom 80 mg from PBO, NASH resolution",[1]; [25],7.4%
same,"% Difference Resmetirom 100 mg from PBO, NASH resolution",[1]; [25],11.7%
same,"% Difference Resmetirom 80 mg from PBO, NASH resolution",[1]; [26],4.2%
same,"% Difference Resmetirom 100 mg from PBO, NASH resolution",[1]; [26],18.6%
same,"% Difference Resmetirom 80 mg from PBO, NASH resolution",[1]; [27],2.6%
same,"% Difference Resmetirom 100 mg from PBO, NASH resolution",[1]; [27],7.0%
same,exposure increase following once daily dosing,[2],1.5- to 3 fold
same,exposure vs dose,[2],greater than dose proportional
same,steady state exposure vs dose,[2],dose proportional
same,time to steady state,[2],3 to 6 days
same,LV reduction (CFB),[3]; 12 weeks,−18.6%
same,LV reduction (CFB),[3]; 36 weeks,−20.5%
same,patients with ≥15% reduction in liver volume,[3]; Week 12,69.2%
